Results on 24 molecules are retold here after ChEMBL document CHEMBL5608141, “Identification of compartment-specific drug sensitivities in CRC organoid-stroma co-cultures” (2024).

Assay type in all cases: functional, Homo sapiens
What all share (design): dose or concentration left out as unconfirmed

The test system of experiment [1] is Colon cancer organoid. The experiment is described as follows: Identification of compartment-specific drug sensitivities in O06 CRC organoid-stroma F06 CAF co-cultures. Organoid is transduced with Lucferase2-P2A-EGFP lentivirus, fibroblast with Renilla-dsRed lentivirus. Dual-Glo Luciferase assay is used to report viability data.
The test system of experiment [2] is Colon cancer organoid. The experiment is described as follows: Identification of compartment-specific drug sensitivities in O14 CRC organoid-stroma F14 CAF co-cultures. Organoid is transduced with Lucferase2-P2A-EGFP lentivirus, fibroblast with Renilla-dsRed lentivirus. Dual-Glo Luciferase assay is used to report viability data.
In experiment [3] the test system is Colon cancer organoid. The experiment is described as follows: Identification of compartment-specific drug sensitivities in O20 CRC organoid-stroma F20 CAF co-cultures. Organoid is transduced with Lucferase2-P2A-EGFP lentivirus, fibroblast with Renilla-dsRed lentivirus. Dual-Glo Luciferase assay is used to report viability data.
The mark [4] stands for this setting: Transduced with Lucferase2-P2A-EGFP lentivirus.
The mark [5] stands for this setting: Transduced with Renilla-dsRed lentivirus.

“And” between values parts separate entries of the source, which are not always exact repeats. Equal values may be shown once.

For the molecule `CC(=O)C1=C(C)N(c2cccc(C(F)(F)F)c2)C(=O)N[C@@H]1c1ccc(C#N)nc1` [BAY-678], the “Cell Viability” value in experiment [1] (setting [4]) is 95.8481%; in experiment [1] (setting [5]), 136.382%; in experiment [2] (setting [4]), 146.251%; in experiment [2] (setting [5]) it was 119.353%; in experiment [3] (setting [4]) it was 140.099%; in experiment [3] (setting [5]), 133.591%.
As for `COc1cc(-c2cn(C)c(=O)c3cnccc23)c(OC)cc1CN(C)C`, the “Cell Viability” value in experiment [1] (setting [4]) is listed as 79.252%; in experiment [1] (setting [5]) it was 108.934%; in experiment [2] (setting [4]), 100.672%; in experiment [2] (setting [5]) it was 88.7606%; in experiment [3] (setting [4]), 61.6023%; in experiment [3] (setting [5]), 139.676%.
On to `Cn1cc(Cl)c2c(Oc3c(F)cc(Nc4cc(Cl)nc(N)n4)cc3F)ccnc21` [BAY-4900], for which the “Cell Viability” value in experiment [1] (setting [4]) is 121.536%; in experiment [1] (setting [5]), 149.241%; in experiment [2] (setting [4]) it was 86.5863%; in experiment [2] (setting [5]), 82.0192%; in experiment [3] (setting [4]), 91.1614%; in experiment [3] (setting [5]) it was 109.2%.
Take `CC1=C(C(=O)Nc2cc3cn[nH]c3cc2F)C(c2ccc(C(F)(F)F)cc2)CC(=O)N1` (centres undefined): the “Cell Viability” value stood at 110.512% in experiment [1] (setting [4]); 74.1449% in experiment [1] (setting [5]); 103.838% in experiment [2] (setting [4]); 118.18% in experiment [2] (setting [5]); 133.463% in experiment [3] (setting [4]); 94.2958% in experiment [3] (setting [5]).
As for `CN(C)[C@H]1CCN(c2cc(-c3ccccc3)nc3ccnn23)C1` [(S)-ZINC-3573], the “Cell Viability” value in experiment [1] (setting [4]) is recorded as 87.7689%; in experiment [1] (setting [5]), 121.05%; in experiment [2] (setting [4]), 98.973%; in experiment [2] (setting [5]) it was 77.8832%; in experiment [3] (setting [4]), 93.0253%; in experiment [3] (setting [5]) it was 112.128%.
On to `Cc1cnc(-c2cc(Cl)ccc2F)cc1-n1c(=O)n(CC(N)=O)c2cnccc21` [TP-008], for which the “Cell Viability” value in experiment [1] (setting [4]) was 13.7504%; in experiment [1] (setting [5]) it was 213.932%; in experiment [2] (setting [4]) it was 74.2388%; in experiment [2] (setting [5]) it was 68.4272%; in experiment [3] (setting [4]), 64.1266%; in experiment [3] (setting [5]), 114.054%.
In the case of `Cl.Cn1cncc1[C@](O)(COc1ccc(C#N)cc1-c1ccc(OC(F)(F)F)cc1)c1ccc(C#N)cc1`, the “Cell Viability” value in experiment [1] (setting [4]) was 46.0933%; in experiment [1] (setting [5]), 149.066%; in experiment [2] (setting [4]), 31.1337%; in experiment [2] (setting [5]), 75.4889%; in experiment [3] (setting [4]), 15.3114%; in experiment [3] (setting [5]), 150.357%.
With `CCOc1cc(N2CCC(O)CC2)ccc1Nc1ncc2c(n1)N(C1CCCC1)CCC(=O)N2C`, the “Cell Viability” value in experiment [1] (setting [4]) was 80.3618%; in experiment [1] (setting [5]), 151.464%; in experiment [2] (setting [4]) it was 84.5477%; in experiment [2] (setting [5]), 160.888%; in experiment [3] (setting [4]), 51.7552%; in experiment [3] (setting [5]), 144.517%.
Take `COCCN1CCC(c2cc(CN(C)C(=O)c3cccc(Oc4ccccc4)c3)ccn2)CC1`: the “Cell Viability” value in experiment [1] (setting [4]) stood at 91.2389%; in experiment [1] (setting [5]), 131.922%; in experiment [2] (setting [4]) it was 131.353%; in experiment [2] (setting [5]) it was 104.266%; in experiment [3] (setting [4]), 94.6976%; in experiment [3] (setting [5]) it was 115.605%.
On to `Cc1sc2c(c1C)C(c1ccc(Cl)cc1)=N[C@H](CC(=O)OC(C)(C)C)c1nnc(C)n1-2`, for which the “Cell Viability” value is 107.283% in experiment [1] (setting [4]); 109.974% in experiment [1] (setting [5]); 146.34% in experiment [2] (setting [4]); 95.1093% in experiment [2] (setting [5]); 99.6993% in experiment [3] (setting [4]); 113.657% in experiment [3] (setting [5]).
Consider `Nc1ncnc2c1ccn2[C@@H]1O[C@H]([C@H](O)c2ccccc2)[C@@H](O)[C@H]1O`, for which the “Cell Viability” value was 22.7938% in experiment [1] (setting [4]); 108.338% in experiment [1] (setting [5]); 25.5953% in experiment [2] (setting [4]); 72.0424% in experiment [2] (setting [5]); 28.7794% in experiment [3] (setting [4]); 179.519% in experiment [3] (setting [5]).
Turning to `O=C(O)c1ccc(-c2c[nH]c3ncc(-c4ccccc4)cc23)cc1C1CCCC1` [GSK-650394], the “Cell Viability” value in experiment [1] (setting [4]) is listed as 92.5027%; in experiment [1] (setting [5]), 110.19%; in experiment [2] (setting [4]), 112.026%; in experiment [2] (setting [5]), 70.7781%; in experiment [3] (setting [4]), 93.9419%; in experiment [3] (setting [5]) it was 129.576%.
As to `O=C(CCCCCCNC(=O)c1cnc(N(c2ccccc2)c2ccccc2)nc1)NO` [RICOLINOSTAT], the “Cell Viability” value in experiment [1] (setting [4]) worked out at 80.064%; in experiment [1] (setting [5]) it was 143.43%; in experiment [2] (setting [4]), 136.319%; in experiment [2] (setting [5]) it was 100.142%; in experiment [3] (setting [4]), 159.49%; in experiment [3] (setting [5]) it was 130.22%.
`CCOc1cn(-c2ccc(F)cc2C)nc1C(=O)Nc1ccc(Oc2ccnc3cc(OC)c(OC)cc23)c(F)c1`: the “Cell Viability” value in experiment [1] (setting [4]) is 87.51% and 89.4828%; in experiment [1] (setting [5]), 84.5689% and 64.7371%; in experiment [2] (setting [4]), 83.4563% and 72.9507%; in experiment [2] (setting [5]), 89.3323% and 81.5085%; in experiment [3] (setting [4]), 229.393% and 192.525%; in experiment [3] (setting [5]) it was 78.4446% and 96.4847%.
As for `CN1CCN(C(=O)C(C)(C)c2ccc(C(=O)Nc3cn4cc(-c5ccncc5)ccc4n3)cc2)CC1` [T3-CLK], the “Cell Viability” value in experiment [1] (setting [4]) is reported as 27.6026%; in experiment [1] (setting [5]), 129.967%; in experiment [2] (setting [4]) it was 20.1131%; in experiment [2] (setting [5]) it was 93.3356%; in experiment [3] (setting [4]), 17.3495%; in experiment [3] (setting [5]), 291.942%.
`CO[C@H]1CC[C@H](CNc2ccc(S(=O)(=O)NC(=O)c3ccc(N4CCN(CC5=C(c6ccc(Cl)cc6)CC(C)(C)CC5)CC4)cc3Oc3cnc4[nH]ccc4c3)cc2[N+](=O)[O-])CC1` [A-1211212]: the “Cell Viability” value in experiment [1] (setting [4]) stood at 8.693%; in experiment [1] (setting [5]), 108.861%; in experiment [2] (setting [4]), 54.5485%; in experiment [2] (setting [5]), 97.9178%; in experiment [3] (setting [4]), 16.4932%; in experiment [3] (setting [5]), 159.244%.
On to `CNc1nc(-c2ccc3c(N)n[nH]c3c2)cc(N2C[C@@H](C(=O)NC3CCCCC3)CC[C@H]2C)n1`, for which the “Cell Viability” value in experiment [1] (setting [4]) is 59.8926%; in experiment [1] (setting [5]), 53.4401%; in experiment [2] (setting [4]), 65.7783%; in experiment [2] (setting [5]), 53.252%; in experiment [3] (setting [4]) it was 52.0118%; in experiment [3] (setting [5]) it was 121.574%.
With `CN(C)[C@H]1CN(C2CCc3cccc(F)c32)C[C@@H]1c1ccc(N2CCN(S(C)(=O)=O)CC2)cc1` (some centres undefined), the “Cell Viability” value in experiment [1] (setting [4]) stood at 82.1891%; in experiment [1] (setting [5]) it was 127.07%; in experiment [2] (setting [4]) it was 77.8807%; in experiment [2] (setting [5]) it was 109.764%; in experiment [3] (setting [4]), 31.9931%; in experiment [3] (setting [5]), 145.189%.
In the case of `CCn1cc(-c2cccc(C(F)(F)F)c2)c2sc(C(=N)NC3CCS(=O)(=O)CC3)cc2c1=O`, the “Cell Viability” value is given as 95.4713% in experiment [1] (setting [4]); 165.165% in experiment [1] (setting [5]); 135.151% in experiment [2] (setting [4]); 119.275% in experiment [2] (setting [5]); 61.0963% in experiment [3] (setting [4]); 124.144% in experiment [3] (setting [5]).
For `OCCn1cc(-c2ccc3c(c2)CCC3=NO)c(-c2ccncc2)n1`, the “Cell Viability” value in experiment [1] (setting [4]) is recorded as 81.3359%; in experiment [1] (setting [5]), 109.303%; in experiment [2] (setting [4]), 204.013%; in experiment [2] (setting [5]), 111.094%; in experiment [3] (setting [4]), 203.673%; in experiment [3] (setting [5]), 70.8995%.
For `C[C@H](c1ccnc(Nc2nc3ccc(-c4cc(N(C)C)ncn4)cc3[nH]2)c1)N1CCN(C(=O)CC(F)(F)F)CC1` [BAY-985], the “Cell Viability” value in experiment [1] (setting [4]) is 137.072%; in experiment [1] (setting [5]) it was 142.411%; in experiment [2] (setting [4]) it was 130.529%; in experiment [2] (setting [5]), 136.274%; in experiment [3] (setting [4]), 129.711%; in experiment [3] (setting [5]) it was 125.86%.
For `CCCc1cc(C)[nH]c(=O)c1CNC(=O)c1cc(-c2ccc(N3CCN(C(C)C)CC3)nc2)cc2c1cnn2C(C)C`, the “Cell Viability” value was found to be 81.1391% in experiment [1] (setting [4]); 118.175% in experiment [1] (setting [5]); 84.6561% in experiment [2] (setting [4]); 97.5786% in experiment [2] (setting [5]); 59.2451% in experiment [3] (setting [4]); 157.842% in experiment [3] (setting [5]).
As to `Cc1sc2c(c1C)C(c1ccc(Cl)cc1)=N[C@@H](CC(=O)OC(C)(C)C)c1nnc(C)n1-2`, the “Cell Viability” value in experiment [1] (setting [4]) is 24.0633%; in experiment [1] (setting [5]), 301.325%; in experiment [2] (setting [4]), 31.858%; in experiment [2] (setting [5]) it was 201.171%; in experiment [3] (setting [4]) it was 11.1793%; in experiment [3] (setting [5]) it was 145.881%.
Take `CN(C)C/C=C/C(=O)Nc1cc2c(Nc3ccc(F)c(Cl)c3)ncnc2cc1O[C@H]1CCOC1.O=C(O)/C=C\C(=O)O.O=C(O)/C=C\C(=O)O` [AFATINIB DIMALEATE]: the “Cell Viability” value turned out to be 26.678% in experiment [1] (setting [4]); 56.3894% in experiment [1] (setting [5]); 29.0273% in experiment [2] (setting [4]); 34.3509% in experiment [2] (setting [5]); 37.8231% in experiment [3] (setting [4]); 73.123% in experiment [3] (setting [5]).
